Measurements: ChEMBL document CHEMBL3045439, “Isoforms of the heteropteran Nezara viridula ecdysone receptor: protein characterisation, RH5992 insecticide binding and homology modelling” (Pest Manag Sci, 2011)
pKi: −log10 of the molar value.

Assays:
Assay type in all cases: protein-complex assay
[1] = target: Ecdysone receptor (Bemisia tabaci, UniProt A3EZJ4+A3EZJ5); test: Binding affinity to Bemisia tabaci (sweet potato whitefly) ecdysone receptor (EcR)
[2] = target: T1, Ecdysone receptor (Nezara viridula, UniProt E5L6Y0+E5L6Y1); test: Binding affinity to Nezara viridula EcR10
T1 sequence (E5L6Y1 whole entry): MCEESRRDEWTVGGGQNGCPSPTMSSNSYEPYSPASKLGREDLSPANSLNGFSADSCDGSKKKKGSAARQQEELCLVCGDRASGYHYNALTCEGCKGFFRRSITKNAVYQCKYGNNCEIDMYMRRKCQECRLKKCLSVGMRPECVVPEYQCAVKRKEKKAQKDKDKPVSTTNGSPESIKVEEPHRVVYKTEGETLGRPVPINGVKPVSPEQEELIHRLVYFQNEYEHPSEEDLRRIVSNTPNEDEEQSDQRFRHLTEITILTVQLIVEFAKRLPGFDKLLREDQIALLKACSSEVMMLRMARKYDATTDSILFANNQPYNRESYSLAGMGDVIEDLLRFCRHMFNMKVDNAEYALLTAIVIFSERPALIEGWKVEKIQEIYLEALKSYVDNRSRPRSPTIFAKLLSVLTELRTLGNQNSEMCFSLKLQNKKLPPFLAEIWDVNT
T1 sequence (E5L6Y0 whole entry): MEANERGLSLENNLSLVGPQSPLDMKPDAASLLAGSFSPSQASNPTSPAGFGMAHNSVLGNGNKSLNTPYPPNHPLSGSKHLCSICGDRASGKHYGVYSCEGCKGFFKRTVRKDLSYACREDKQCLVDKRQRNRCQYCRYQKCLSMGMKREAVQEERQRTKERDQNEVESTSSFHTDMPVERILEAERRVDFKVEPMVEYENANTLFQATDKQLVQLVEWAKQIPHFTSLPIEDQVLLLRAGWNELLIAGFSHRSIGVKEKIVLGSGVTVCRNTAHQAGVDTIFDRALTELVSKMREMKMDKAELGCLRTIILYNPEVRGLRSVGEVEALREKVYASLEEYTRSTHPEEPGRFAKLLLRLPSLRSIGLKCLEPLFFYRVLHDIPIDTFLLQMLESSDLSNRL

[3] = target: T2, Ecdysone receptor (Locusta migratoria, UniProt O97095+Q6V7U7); test: Binding affinity to Locusta migratoria ecdysone receptor (EcR)
T2 sequence (O97095 whole entry): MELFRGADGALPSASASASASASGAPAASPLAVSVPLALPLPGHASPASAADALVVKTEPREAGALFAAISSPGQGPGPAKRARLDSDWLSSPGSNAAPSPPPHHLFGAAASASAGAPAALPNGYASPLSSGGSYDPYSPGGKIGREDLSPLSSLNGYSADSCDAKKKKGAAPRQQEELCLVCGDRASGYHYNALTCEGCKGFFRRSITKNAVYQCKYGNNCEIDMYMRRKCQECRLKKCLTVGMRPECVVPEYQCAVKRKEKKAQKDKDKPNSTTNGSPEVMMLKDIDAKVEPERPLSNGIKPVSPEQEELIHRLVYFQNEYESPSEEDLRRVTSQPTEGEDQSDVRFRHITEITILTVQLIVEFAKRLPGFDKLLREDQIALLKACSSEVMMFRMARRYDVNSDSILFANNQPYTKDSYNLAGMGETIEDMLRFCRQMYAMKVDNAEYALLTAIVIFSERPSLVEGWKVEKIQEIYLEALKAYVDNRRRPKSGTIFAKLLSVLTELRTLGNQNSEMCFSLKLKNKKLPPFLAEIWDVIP
T2 sequence (Q6V7U7 whole entry): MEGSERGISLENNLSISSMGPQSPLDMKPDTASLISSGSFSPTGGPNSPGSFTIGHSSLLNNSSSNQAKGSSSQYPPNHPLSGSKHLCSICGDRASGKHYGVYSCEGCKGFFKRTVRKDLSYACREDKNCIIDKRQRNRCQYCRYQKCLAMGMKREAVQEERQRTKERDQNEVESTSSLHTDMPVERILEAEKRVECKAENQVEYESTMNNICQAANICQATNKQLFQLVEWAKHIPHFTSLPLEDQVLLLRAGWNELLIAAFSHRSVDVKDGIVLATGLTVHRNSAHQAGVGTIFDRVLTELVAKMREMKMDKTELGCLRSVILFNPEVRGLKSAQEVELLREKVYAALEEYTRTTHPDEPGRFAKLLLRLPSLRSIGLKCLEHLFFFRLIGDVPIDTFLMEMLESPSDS

[4] = target: T3, Ecdysone receptor (Heliothis virescens, UniProt O18473+Q7SIF6); test: Binding affinity to Heliothis virescens (tobacco budworm) EcR
T3 sequence (O18473 whole entry): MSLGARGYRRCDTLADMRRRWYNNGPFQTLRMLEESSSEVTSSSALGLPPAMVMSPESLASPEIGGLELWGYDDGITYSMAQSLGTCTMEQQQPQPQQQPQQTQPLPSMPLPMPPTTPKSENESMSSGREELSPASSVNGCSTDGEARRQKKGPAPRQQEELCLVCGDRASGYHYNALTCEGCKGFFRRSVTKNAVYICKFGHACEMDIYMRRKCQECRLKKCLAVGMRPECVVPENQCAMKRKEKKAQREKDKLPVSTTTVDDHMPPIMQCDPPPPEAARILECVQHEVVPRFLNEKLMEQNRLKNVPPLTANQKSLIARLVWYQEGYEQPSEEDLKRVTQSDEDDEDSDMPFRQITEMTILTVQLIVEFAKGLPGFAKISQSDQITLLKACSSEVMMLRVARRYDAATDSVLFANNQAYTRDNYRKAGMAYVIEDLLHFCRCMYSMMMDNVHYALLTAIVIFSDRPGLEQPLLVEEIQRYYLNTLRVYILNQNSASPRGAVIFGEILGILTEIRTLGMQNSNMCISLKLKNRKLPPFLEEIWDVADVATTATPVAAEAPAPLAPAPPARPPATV
T3 sequence (Q7SIF6 whole entry): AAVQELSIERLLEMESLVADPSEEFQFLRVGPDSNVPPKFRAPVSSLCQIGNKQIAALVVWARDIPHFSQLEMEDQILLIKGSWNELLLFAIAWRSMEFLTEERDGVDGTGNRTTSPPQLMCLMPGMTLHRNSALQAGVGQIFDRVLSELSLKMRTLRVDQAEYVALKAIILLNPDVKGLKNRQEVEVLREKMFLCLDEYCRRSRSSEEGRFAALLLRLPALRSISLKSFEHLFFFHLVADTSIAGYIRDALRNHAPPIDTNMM

Ecdysone receptor (Bemisia tabaci, UniProt A3EZJ4+A3EZJ5), sequence (A3EZJ4 1-297): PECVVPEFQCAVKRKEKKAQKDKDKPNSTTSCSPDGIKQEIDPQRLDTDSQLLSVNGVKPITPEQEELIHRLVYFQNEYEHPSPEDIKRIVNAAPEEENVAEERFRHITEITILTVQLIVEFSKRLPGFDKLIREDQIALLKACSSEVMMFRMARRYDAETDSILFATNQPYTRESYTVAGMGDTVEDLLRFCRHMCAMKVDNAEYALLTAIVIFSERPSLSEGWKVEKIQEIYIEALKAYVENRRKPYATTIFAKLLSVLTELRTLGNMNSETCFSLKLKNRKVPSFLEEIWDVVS
Ecdysone receptor (Bemisia tabaci, UniProt A3EZJ4+A3EZJ5), sequence (A3EZJ5 1-251): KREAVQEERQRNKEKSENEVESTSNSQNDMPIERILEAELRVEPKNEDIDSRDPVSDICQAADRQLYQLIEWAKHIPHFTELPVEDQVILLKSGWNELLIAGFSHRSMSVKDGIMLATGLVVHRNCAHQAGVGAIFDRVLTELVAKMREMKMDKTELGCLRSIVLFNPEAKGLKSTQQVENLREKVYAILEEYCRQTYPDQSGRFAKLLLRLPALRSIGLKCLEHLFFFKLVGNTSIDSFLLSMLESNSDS

In the case of `CCc1ccc(C(=O)NN(C(=O)c2cc(C)cc(C)c2)C(C)(C)C)cc1` [TEBUFENOZIDE], the pKi [1] was less than 3.30, the pKi [2] was 4.70 and the pKi [3] was 4.00. It also gave a pKi [4] of 8.50.
